These results are taken from PubChem BioAssay AID328 (DTP/NCI, 2004).

The test concerns BDF1 mice, P388 leukemia ip, median survival T/C. Kind of test: NCI In Vivo Anticancer Drug Screen. Data for tumor model P388 Leukemia (intraperitoneal) in B6D2F1 (BDF1) mice. As to conditions: endpoint: median survival time, higher = longer survival. Summed up:
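T/C = treated-group survival ÷ vehicle-control survival; tumour transplanted into mice before dosing.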

The mark [1] stands for this setting: dose: 50.0 mg/kg/injection, schedule: Q01DX009 (ip), vehicle: saline with Tween-80.
Setting [2] is: dose: 100.0 mg/kg/injection, schedule: Q01DX009 (ip), vehicle: saline with Tween-80.
The mark [3] stands for this setting: dose: 100.0 mg/kg/injection, schedule: Q04DX003 (ip), vehicle: saline with Tween-80.
Setting [4] is: dose: 200.0 mg/kg/injection, schedule: Q01DX009 (ip), vehicle: saline with Tween-80.
The mark [5] stands for this setting: dose: 200.0 mg/kg/injection, schedule: Q04DX003 (ip), vehicle: saline with Tween-80.
[6] abbreviates: dose: 400.0 mg/kg/injection, schedule: Q04DX003 (ip), vehicle: saline with Tween-80.
Where [7] appears, read: dose: 100.0 mg/kg/injection, schedule: Q04DX003 (ip), vehicle: saline.
The mark [8] stands for this setting: dose: 200.0 mg/kg/injection, schedule: Q04DX003 (ip), vehicle: saline.
Where [9] appears, read: dose: 400.0 mg/kg/injection, schedule: Q04DX003 (ip), vehicle: saline.
Where [10] appears, read: dose: 50.0 mg/kg/injection, schedule: Q04DX003 (ip), vehicle: saline with Tween-80.
The mark [11] stands for this setting: dose: 50.0 mg/kg/injection, schedule: Q01DX009 (ip), vehicle: saline.
Where [12] appears, read: dose: 100.0 mg/kg/injection, schedule: Q01DX009 (ip), vehicle: saline.
The mark [13] stands for this setting: dose: 25.0 mg/kg/injection, schedule: Q01DX009 (ip), vehicle: saline.

Where “and” joins values, the source holds several entries; their conditions need not be identical. Identical values can stand only once. Inconclusive results and toxic doses are left out.

In the case of `O=C(COc1ccc(Cl)cc1)C1CSc2ccc(Br)cc21` (stereo unspecified), the T/C was 90 % of control (dose: 100.0 mg/kg/injection, schedule: Q04DX003 (ip), vehicle: saline sonified); 95 % of control (dose: 200.0 mg/kg/injection, schedule: Q04DX003 (ip), vehicle: saline sonified); 95 % of control (dose: 400.0 mg/kg/injection, schedule: Q04DX003 (ip), vehicle: saline sonified).
Consider `COc1ccc(Cl)cc1N`, for which the T/C reads like this: under setting [1], 95 % of control; under setting [2], 91 % of control.
`CC(=O)Oc1ccc(N2C(=O)C=CC2=O)cc1`: the T/C runs as follows: (dose: 1.56 mg/kg/injection, schedule: Q04DX003 (ip), vehicle: Klucel (hydroxypropylcellulose) (HPC)) 100 % of control; (dose: 3.12 mg/kg/injection, schedule: Q01DX009 (ip), vehicle: Klucel (hydroxypropylcellulose) (HPC)) 104 % of control; (dose: 3.12 mg/kg/injection, schedule: Q04DX003 (ip), vehicle: Klucel (hydroxypropylcellulose) (HPC)) 100 % of control; (dose: 6.25 mg/kg/injection, schedule: Q01DX009 (ip), vehicle: Klucel (hydroxypropylcellulose) (HPC)) 104 % of control; (dose: 6.25 mg/kg/injection, schedule: Q04DX003 (ip), vehicle: Klucel (hydroxypropylcellulose) (HPC)) 100 % of control; (dose: 9.2 mg/kg/injection, schedule: Q04DX003 (ip), vehicle: Klucel (hydroxypropylcellulose) (HPC)) 90 % of control. The T/C by setting is: (dose: 12.5 mg/kg/injection, schedule: Q01DX009 (ip), vehicle: Klucel (hydroxypropylcellulose) (HPC)) 109 % of control; (dose: 14.0 mg/kg/injection, schedule: Q04DX003 (ip), vehicle: Klucel (hydroxypropylcellulose) (HPC)) 95 % of control.
`CC12CCCCC1=Nc1ccc3ccccc3c12` (stereo unspecified): the T/C (dose: 100.0 mg/kg/injection, schedule: Q01DX009 (ip), vehicle: saline + alcohol) was 93 % of control.
In the case of `C=CCOC(=O)c1ccccc1N`, the T/C reads like this: under setting [2], 118 % of control; under setting [3], 110 % of control; under setting [4], 118 % of control; under setting [5], 115 % of control; under setting [6], 110 % of control.
In the case of `c1csc(CSc2ncnc3nc[nH]c23)c1`, the T/C is, setting by setting: under setting [2], 100 % of control; under setting [4], 100 % of control.
On to `Cc1cccc(=O)n1CCC#N`, for which the T/C runs as follows: under setting [7], 96 % of control; under setting [8], 96 % of control; under setting [9], 100 % of control.
On to `CCOC(=O)c1cnn(C(N)=S)c1N`, for which the T/C is, setting by setting: under setting [1], 90 % of control; under setting [10], 104 % of control; (dose: 66.0 mg/kg/injection, schedule: Q04DX003 (ip), vehicle: saline with Tween-80) 104 % of control; under setting [3], 90 % of control and 104 % of control; (dose: 150.0 mg/kg/injection, schedule: Q04DX003 (ip), vehicle: saline with Tween-80) 90 % of control; under setting [5], 100 % of control.
On to `OC(CCCCl)CC(O)(C(F)(F)F)C(F)(F)F` (stereo unspecified), for which the T/C is 100 % of control under setting [3] and 109 % of control under setting [5].
Consider `O=C(Oc1ccc(Cl)cc1)c1ccc(C(=O)Oc2ccc(Cl)cc2)cc1`, for which the T/C by setting is: (dose: 176.0 mg/kg/injection, schedule: Q04DX003 (ip), vehicle: saline with Tween-80) 90 % of control; (dose: 264.0 mg/kg/injection, schedule: Q04DX003 (ip), vehicle: saline with Tween-80) 100 % of control; under setting [6], 90 % of control.
On to `CC(C)NC(=O)N(C(=O)C(F)(F)F)C(C)C`, for which the T/C is 105 % of control under setting [1], 94 % of control under setting [2] and 95 % of control under setting [4].
As for `CC(=O)Oc1cccc2c1C(=O)c1c(OC(C)=O)cccc1C2=O`, the T/C (dose: 3.13 mg/kg/injection, schedule: Q04DX003 (ip), vehicle: Klucel (hydroxypropylcellulose) (HPC)) is 101 % of control; the T/C (dose: 12.5 mg/kg/injection, schedule: Q04DX003 (ip), vehicle: Klucel (hydroxypropylcellulose) (HPC)) is 99 % of control; the T/C (dose: 25.0 mg/kg/injection, schedule: Q04DX003 (ip), vehicle: Klucel (hydroxypropylcellulose) (HPC)) was 117 % of control; the T/C (dose: 50.0 mg/kg/injection, schedule: Q04DX003 (ip), vehicle: Klucel (hydroxypropylcellulose) (HPC)) is 108 % of control.
For the compound `O=CNNC(=O)c1ccccn1`, the T/C reads like this: under setting [1], 96 % of control; under setting [11], 100 % of control; (dose: 50.0 mg/kg/injection, schedule: Q04DX003 (ip), vehicle: saline) 100 % of control; under setting [2], 96 % of control; under setting [12], 104 % of control; under setting [3], 113 % of control. Besides, the T/C was 100 % of control under setting [7], 96 % of control under setting [4], 109 % of control under setting [5] and 100 % of control under setting [8].
In the case of `COc1ccc(C(=O)N/N=C(\C)[C@]2(O)Cc3c(O)c4c(c(O)c3[C@@H](OC3CC(N)C(O)C(C)O3)C2)C(=O)c2c(OC)cccc2C4=O)cc1` (stereo partly specified), the T/C is, setting by setting: (dose: 0.25 mg/kg/injection, schedule: Q01DX009 (ip), vehicle: water) 117 % of control and 123 % of control; (dose: 1.0 mg/kg/injection, schedule: Q01DX009 (ip), vehicle: water) 156 % of control and 212 % of control; (dose: 2.0 mg/kg/injection, schedule: Q01DX009 (ip), vehicle: water) 275 % of control and 156 % of control; (dose: 4.0 mg/kg/injection, schedule: Q01DX009 (ip), vehicle: water) 244 % of control and 107 % of control; (dose: 8.0 mg/kg/injection, schedule: Q01DX009 (ip), vehicle: water) 107 % of control.
On to `COc1cc2c(cc1OC)C(CNC(=O)/C=C/c1ccccc1)C2` (stereo unspecified), for which the T/C reads like this: (dose: 100.0 mg/kg/injection, schedule: Q01DX001 (ip), vehicle: Klucel (hydroxypropylcellulose) (HPC)) 115 % of control; (dose: 200.0 mg/kg/injection, schedule: Q01DX001 (ip), vehicle: Klucel (hydroxypropylcellulose) (HPC)) 110 % of control; (dose: 400.0 mg/kg/injection, schedule: Q01DX001 (ip), vehicle: Klucel (hydroxypropylcellulose) (HPC)) 120 % of control.
Regarding `CCCCN(C)N=Nc1ccc(CCCC(=O)OCC)cc1`, the T/C (dose: 12.5 mg/kg/injection, schedule: Q01DX009 (ip), vehicle: saline with Tween-80) is 91 % of control; the T/C (dose: 25.0 mg/kg/injection, schedule: Q01DX009 (ip), vehicle: saline with Tween-80) is 100 % of control; the T/C under setting [1] is 117 % of control; the T/C (dose: 132.0 mg/kg/injection, schedule: Q04DX003 (ip), vehicle: saline) was 95 % of control; the T/C under setting [8] was 156 % of control; the T/C (dose: 300.0 mg/kg/injection, schedule: Q04DX003 (ip), vehicle: saline) was 121 % of control.
For the compound `CN(C)CCNc1ccc(O)c2sc3ccccc3c(=O)c12`, the T/C (dose: 25.0 mg/kg/injection, schedule: Q04DX003 (ip), vehicle: saline with Tween-80) is 96 % of control; the T/C under setting [10] was 109 % of control; the T/C under setting [3] was 97 % of control.
For `CC(=O)OCC(C)OC(C)=O` (stereo unspecified), the T/C reads like this: under setting [12], 91 % of control; under setting [7], 100 % of control; (dose: 200.0 mg/kg/injection, schedule: Q01DX009 (ip), vehicle: saline) 112 % of control; under setting [8], 100 % of control; under setting [9], 96 % of control.
With `COc1ccc(C2=CCCC2)cc1`, the T/C reads like this: (dose: 100.0 mg/kg/injection, schedule: Q04DX003 (ip), vehicle: Klucel (hydroxypropylcellulose) (HPC)) 108 % of control; (dose: 200.0 mg/kg/injection, schedule: Q04DX003 (ip), vehicle: Klucel (hydroxypropylcellulose) (HPC)) 95 % of control; (dose: 400.0 mg/kg/injection, schedule: Q04DX003 (ip), vehicle: Klucel (hydroxypropylcellulose) (HPC)) 100 % of control.
On to `CCCCCOC(CN)C(Cl)(Cl)Cl` (stereo unspecified), for which the T/C reads like this: under setting [13], 115 % of control; (dose: 33.0 mg/kg/injection, schedule: Q01DX009 (ip), vehicle: saline) 100 % of control and 118 % of control; under setting [11], 113 % of control and 122 % of control; (dose: 75.0 mg/kg/injection, schedule: Q01DX009 (ip), vehicle: saline) 109 % of control.
`OCCN1CCN(CCCN2c3ccccc3Sc3cccnc32)CC1`: the T/C was 104 % of control (dose: 12.5 mg/kg/injection, schedule: Q01DX009 (ip), vehicle: saline); 96 % of control (dose: 18.75 mg/kg/injection, schedule: Q04DX003 (ip), vehicle: saline); 108 % of control and 110 % of control under setting [13]; 107 % of control (dose: 37.5 mg/kg/injection, schedule: Q04DX003 (ip), vehicle: saline); 122 % of control under setting [11].
